Earlier results, collected in US10946011B2 (Martin Pharmaceuticals Inc., priority 2018, dated 2021).

Question: With OCC(CO)(CO)NCCCNC(CO)(CO)CO [BIS-Tris Propane] as the compound, how does the PKa read?
Answer: 6.80
